In this experiment the target is T1, human kidney-type glutaminase (KGA), catalytic domain (cKGA) (Homo sapiens, UniProt O94925).
T1 sequence (O94925 221-533): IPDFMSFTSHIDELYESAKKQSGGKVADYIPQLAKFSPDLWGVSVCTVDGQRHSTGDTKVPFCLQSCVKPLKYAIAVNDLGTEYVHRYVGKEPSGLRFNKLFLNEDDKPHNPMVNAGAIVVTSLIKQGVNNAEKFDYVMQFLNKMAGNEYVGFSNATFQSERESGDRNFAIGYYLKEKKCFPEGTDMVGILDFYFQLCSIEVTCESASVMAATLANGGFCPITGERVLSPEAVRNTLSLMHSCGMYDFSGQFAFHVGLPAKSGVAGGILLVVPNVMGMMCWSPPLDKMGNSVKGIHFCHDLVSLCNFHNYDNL
Description: X-ray crystal structure at […] Å. In kind it is biochemical.

Each structure is given as a SMILES string.

Consider `[N-]=[N+]=CC(=O)CC[C@H](N)C(=O)O` [DON, 6-diazo-5-oxo-L-norleucine], for which the IC50 is about 1000 µM.
